34 compounds from patent US12275729B2 (Merck Sharp & Dohme LLC, priority 2017, dated 2025) can be followed below.

pIC50: −log10 of the molar value.

Chain of IDO1 (P14902 whole entry): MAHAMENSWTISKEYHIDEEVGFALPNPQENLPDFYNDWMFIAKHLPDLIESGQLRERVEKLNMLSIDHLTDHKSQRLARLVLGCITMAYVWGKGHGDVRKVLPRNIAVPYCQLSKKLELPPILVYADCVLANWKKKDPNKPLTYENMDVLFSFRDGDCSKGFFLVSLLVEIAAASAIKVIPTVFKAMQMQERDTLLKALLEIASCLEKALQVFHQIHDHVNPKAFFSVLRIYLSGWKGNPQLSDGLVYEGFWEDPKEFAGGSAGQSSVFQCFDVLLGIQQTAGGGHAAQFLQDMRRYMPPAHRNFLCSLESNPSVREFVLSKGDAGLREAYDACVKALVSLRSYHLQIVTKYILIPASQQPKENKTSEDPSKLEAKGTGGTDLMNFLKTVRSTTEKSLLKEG

One assay has as its target IDO1 (Homo sapiens, UniProt P14902). Kind of assay: IDO1 Cellular Assay in HeLa Cells Stimulated with IFNγ. Type of assay: cell-based. The following applies: about 48 hours, read-out: Hela IC50.
In the case of `O=C(c1cc(C(F)(F)F)n[nH]1)N1CCCc2cc(C3(C(=O)Nc4ccc(F)cc4)CCC3)ccc21` [Example 116, N-(4-fluorophenyl)-1-{1-[3-(trifluoromethyl)-1H-pyrazole-5-carbonyl]-1,2,3,4-tetrahydroquinolin-6-yl}cyclobutane-1-carboxamide], the pIC50 is 7.29.
On to `CC(C)CC(=O)N1c2ccc(CNC(=O)c3ccc(Cl)cc3)cc2CCC1(C)C` [Example 13, 4-chloro-N-{[2,2-dimethyl-1-(3-methylbutanoyl)-1,2,3,4-tetrahydroquinolin-6-yl]methyl}benzamide], for which the pIC50 was 7.01.
On to `CC(NC(=O)c1ccc(F)cc1)c1ccc2c(n1)CCCN2C(=O)c1cccc(C(F)(F)F)c1` (stereo not shown) [Example 284, 2-(1-(4-fluorobenzamido)ethyl)-5-(3-(trifluoromethyl)benzoyl)-5,6,7,8-tetrahydro-1,5-naphthyridin-1-ium 2,2,2-trifluoroacetate], for which the pIC50 is 8.92.
For the compound `Cc1nccc(N2CCCc3nc(C4(NC(=O)c5ccc(F)c(F)c5)CC4)ccc32)n1` [Example 302, 3,4-difluoro-N-(1-(5-(2-methylpyrimidin-4-yl)-5,6,7,8-tetrahydro-1,5-naphthyridin-2-yl)cyclopropyl)benzamide], the pIC50 was 8.53.
For the compound `Cc1ccc(C(=O)NCc2ccc3c(c2)CCCN3C(=O)CC(C)C)cc1` [Example 5, 4-methyl-N-{[1-(3-methylbutanoyl)-1,2,3,4-tetrahydroquinolin-6-yl]methyl}benzamide], the pIC50 is 7.11.
The same measure, in the same setting: to `CC(C(=O)Nc1ccc(F)cc1)c1ccc2c(n1)CCCN2C(=O)C1CCCCO1` (single isomer, unassigned) [Example 160, N-(4-fluorophenyl)-2-[5-(oxane-2-carbonyl)-5,6,7,8-tetrahydro-1,5-naphthyridin-2-yl]propanamide] belongs 8.09; to `Cc1n[nH]c(C(=O)N2CCCc3cc(C4(C(=O)Nc5ccc(F)cc5)CCC4)ccc32)n1` [Example 109, N-(4-fluorophenyl)-1-[1-(3-methyl-1H-1,2,4-triazole-5-carbonyl)-1,2,3,4-tetrahydroquinolin-6-yl]cyclobutane-1-carboxamide], 7.79; to `CC(C)(O)c1cccc(N2CCCc3nc(C4(NC(=O)c5ccc(F)cc5)CC4)ccc32)n1` [Example 297, 4-fluoro-N-(1-(5-(6-(2-hydroxypropan-2-yl)pyridin-2-yl)-5,6,7,8-tetrahydro-1,5-naphthyridin-2-yl)cyclopropyl)benzamide], 7.33.
Take `CC(C)C(C(=O)Nc1ccc(F)cc1)c1ccc2c(n1)CCCN2C(=O)C1CC1` (stereo not shown) [Example 265, 2-(5-(cyclopropanecarbonyl)-5,6,7,8-tetrahydro-1,5-naphthyridin-2-yl)-N-(4-fluorophenyl)-3-methylbutanamide]: the pIC50 was 7.80.
The same measure, in the same setting: next, `O=C(c1cccc(Cl)c1)N1CCCc2nc(C3(C(=O)Nc4ccc(F)cc4)COC3)ccc21` [Example 267, 3-(5-(3-chlorobenzoyl)-5,6,7,8-tetrahydro-1,5-naphthyridin-2-yl)-N-(4-fluorophenyl)oxetane-3-carboxamide]: 8.66; `C[C@H](C(=O)Nc1ccc(F)cc1)c1ccc2c(c1)CCCN2C(=O)[C@@H]1CCOC1` [Example 78, (2S)-N-(4-fluorophenyl)-2-{1-[(3R)-oxolane-3-carbonyl]-1,2,3,4-tetrahydroquinolin-6-yl}propanamide]: 7.29.
As to `CC(C)CC(=O)N1CCCc2cc(CNC(=O)c3ccc(F)c(F)c3)ccc21` [Example 10, 3,4-difluoro-N-{[1-(3-methylbutanoyl)-1,2,3,4-tetrahydroquinolin-6-yl]methyl}benzamide], the pIC50 is 6.79.
On to `CC(C)CC(=O)N1CCCc2cc(CNC(=O)c3ccc(Cl)c(Cl)c3)ccc21` [Example 8, 3,4-dichloro-N-{[1-(3-methylbutanoyl)-1,2,3,4-tetrahydroquinolin-6-yl]methyl}benzamide], for which the pIC50 was 6.56.
Turning to `O=C(Nc1ccc(F)cc1)C(c1ccc2c(n1)CCCN2C(=O)C1CC1)C1CC1` (single isomer, unassigned) [Example 262, 2-(5-(cyclopropanecarbonyl)-5,6,7,8-tetrahydro-1,5-naphthyridin-2-yl)-2-cyclopropyl-N-(4-fluorophenyl)acetamide], the pIC50 is 7.96.
For `CC(NC(=O)c1ccc(Cl)cc1)c1ccc2c(n1)CCCN2C(=O)c1cc(C2CC2)ccn1` (stereo not shown) [Example 288, 4-chloro-N-(1-(5-(4-cyclopropylpicolinoyl)-5,6,7,8-tetrahydro-1,5-naphthyridin-2-yl)ethyl)benzamide], the pIC50 is 8.49.
The same measure, in the same setting: next, `CC(C)(C)OC(=O)N1CCCc2cc(C3(C(=O)NC45CC(C4)C5)CCC3)ccc21` [Example 119, tert-butyl 6-{1-[(bicyclo[1.1.1]pentan-1-yl)carbamoyl]cyclobutyl}-3,4-dihydroquinoline-1(2H)-carboxylate]: 7.06; `CC(NC(=O)c1ccc(F)cc1)c1ccc2c(n1)C(F)(F)CCN2C(=O)C1CC1` (single isomer, unassigned) [Example 194, N-(1-(5-(cyclopropanecarbonyl)-8,8-difluoro-5,6,7,8-tetrahydro-1,5-naphthyridin-2-yl)ethyl)-4-fluorobenzamide]: 5.58.
The same measure, in the same setting: next, `O=C(c1cocn1)N1CCCc2cc(C3(C(=O)Nc4ccc(F)cn4)CCC3)ccc21` [Example 121, N-(5-fluoropyridin-2-yl)-1-[1-(1,3-oxazole-4-carbonyl)-1,2,3,4-tetrahydroquinolin-6-yl]cyclobutane-1-carboxamide]: 8.39; `CC(C)CC(=O)N1CCCc2cc(CNC(=O)c3cccc(Cl)c3)ccc21` [Example 2, 3-chloro-N-{[1-(3-methylbutanoyl)-1,2,3,4-tetrahydroquinolin-6-yl]methyl}benzamide]: 6.99; `CC(NC(=O)c1ccc(F)cc1)c1ccc2c(c1)CCCN2C(CO)c1cccc(Cl)c1` (single isomer, unassigned) [Example 95]: 6.26.
For the compound `CC(NC(=O)c1ccc(F)cc1)c1ccc2c(n1)CCCN2C(=O)c1cccc(C#N)c1` (stereo not shown) [Example 147, N-{1-[5-(3-cyanobenzene-1-carbonyl)-5,6,7,8-tetrahydro-1,5-naphthyridin-2-yl]ethyl}-4-fluorobenzamide], the pIC50 was 8.77.
On to `O=C(C1CC1)N1CCCc2nc(C3(C(=O)Nc4ccc(F)cn4)CCC3)ccc21` [Example 169, 1-[5-(cyclopropanecarbonyl)-5,6,7,8-tetrahydro-1,5-naphthyridin-2-yl]-N-(5-fluoropyridin-2-yl)cyclobutane-1-carboxamide], for which the pIC50 is 7.25.
`COC(C(=O)Nc1ccc(F)cn1)c1ccc2c(c1)CCCN2C(=O)C1CC1` (single isomer, unassigned) [Example 156, 2-(1-(cyclopropanecarbonyl)-1,2,3,4-tetrahydroquinolin-6-yl)-N-(5-fluoropyridin-2-yl)-2-methoxyacetamide]: the pIC50 was 6.10.
With `CC(C)CC(=O)N1CCCc2cc(CNC(=O)c3ccc(F)cc3)ccc21` [Example 11, 4-fluoro-N-{[1-(3-methylbutanoyl)-1,2,3,4-tetrahydroquinolin-6-yl]methyl}benzamide], the pIC50 is 7.38.
In the case of `COCCOCC(=O)N1CCCc2cc([C@H](C)C(=O)Nc3ccc(F)cc3)ccc21` [Example 77, (2S)-N-(4-fluorophenyl)-2-{1-[(2-methoxyethoxy)acetyl]-1,2,3,4-tetrahydroquinolin-6-yl}propanamide], the pIC50 was 5.91.
On to `CC(NC(=O)c1ccc(F)cc1)c1ccc2c(n1)C(O)CCN2C(=O)C1CC1` (stereo not shown) [Example 196, N-(1-(5-(cyclopropanecarbonyl)-8-hydroxy-5,6,7,8-tetrahydro-1,5-naphthyridin-2-yl)ethyl)-4-fluorobenzamide], for which the pIC50 was 6.47.
As for `C[C@H](C(=O)Nc1ccc(F)cc1)c1ccc2c(c1)CCCN2C(=O)CCOC(C)(C)C` [Example 70, (2S)-2-[1-(3-tert-butoxypropanoyl)-1,2,3,4-tetrahydroquinolin-6-yl]-N-(4-fluorophenyl)propanamide], the pIC50 was 5.47.
For `C=CCC(C(=O)Nc1ccc(F)cc1)c1ccc2c(c1)CCCN2C(=O)c1cccc(Cl)c1` (stereo not shown) [Example 58, 2-[1-(3-chlorobenzene-1-carbonyl)-1,2,3,4-tetrahydroquinolin-6-yl]-N-(4-fluorophenyl)pent-4-enamide], the pIC50 is 8.37.

The same assay, now with this note: read-out: Hela IC50.
As to `O=C(OC1CC1)N1CCCc2nc(C3(C(=O)Nc4ccc(Cl)nc4)CCC3)ccc21` [Example 412, cyclopropyl 6-(1-((6-chloropyridin-3-yl)carbamoyl)cyclobutyl)-3,4-dihydro-1,5-naphthyridine-1(2H)-carboxylate], the pIC50 is 9.04.
On the same count and under the same terms, to `CC(NC(=O)c1ccc(Cl)cc1)c1ccc2c(n1)CCCN2c1nc(Cl)nc2c1CCCC2` (stereo not shown) [Example 361, 5-(2-chloro-5,6,7,8-tetrahydroquinazolin-4-yl)-2-(1-(4-chlorobenzamido)ethyl)-5,6,7,8-tetrahydro-1,5-naphthyridin-1-ium 2,2,2-trifluoroacetate] belongs 8.08; to `COc1ccc(C(=O)NC(C)c2ccc3c(n2)CCCN3C(=O)OC2CC2)cc1` (stereo not shown) [Example 338, cyclopropyl 6-(1-(4-methoxybenzamido)ethyl)-3,4-dihydro-1,5-naphthyridine-1(2H)-carboxylate], 6.79.
For `CCCOCCOC(=O)N1CCCc2nc(C(C)NC(=O)c3ccc(F)cc3)ccc21` (stereo not shown) [Example 323, 2-propoxyethyl 6-(1-(4-fluorobenzamido)ethyl)-3,4-dihydro-1,5-naphthyridine-1(2H)-carboxylate], the pIC50 was 8.36.
With `O=C(Nc1ccc(F)cc1)C1(c2ccc3c(n2)CCCN3c2ccnc(C(F)(F)F)n2)CC2(CC2)C1` [Example 416, N-(4-fluorophenyl)-5-(5-(2-(trifluoromethyl)pyrimidin-4-yl)-5,6,7,8-tetrahydro-1,5-naphthyridin-2-yl)spiro[2.3]hexane-5-carboxamide], the pIC50 is 9.10.
As to `CC(NC(=O)c1ccc(F)cc1)c1ccc2c(n1)CCCN2c1cc2n(n1)CCC2` (stereo not shown) [Example 369, N-(1-(5-(5,6-dihydro-4H-pyrrolo[1,2-b]pyrazol-2-yl)-5,6,7,8-tetrahydro-1,5-naphthyridin-2-yl)ethyl)-4-fluorobenzamide], the pIC50 is 6.16.
